In ChEMBL document CHEMBL3880401, “Novel aminopyridine derivatives as mGluR5 antagonists” (2006):

molecular target: Metabotropic glutamate receptor 5 (Rattus norvegicus, UniProt P31424); assay: Displacement of [3H]-MPEP from mGlur5 from Sprague-Dawley rat brain membranes incubated for 1 hr by liquid scintillation spectrometry; type: tissue-based, Membrane
Sequence (P31424 whole entry): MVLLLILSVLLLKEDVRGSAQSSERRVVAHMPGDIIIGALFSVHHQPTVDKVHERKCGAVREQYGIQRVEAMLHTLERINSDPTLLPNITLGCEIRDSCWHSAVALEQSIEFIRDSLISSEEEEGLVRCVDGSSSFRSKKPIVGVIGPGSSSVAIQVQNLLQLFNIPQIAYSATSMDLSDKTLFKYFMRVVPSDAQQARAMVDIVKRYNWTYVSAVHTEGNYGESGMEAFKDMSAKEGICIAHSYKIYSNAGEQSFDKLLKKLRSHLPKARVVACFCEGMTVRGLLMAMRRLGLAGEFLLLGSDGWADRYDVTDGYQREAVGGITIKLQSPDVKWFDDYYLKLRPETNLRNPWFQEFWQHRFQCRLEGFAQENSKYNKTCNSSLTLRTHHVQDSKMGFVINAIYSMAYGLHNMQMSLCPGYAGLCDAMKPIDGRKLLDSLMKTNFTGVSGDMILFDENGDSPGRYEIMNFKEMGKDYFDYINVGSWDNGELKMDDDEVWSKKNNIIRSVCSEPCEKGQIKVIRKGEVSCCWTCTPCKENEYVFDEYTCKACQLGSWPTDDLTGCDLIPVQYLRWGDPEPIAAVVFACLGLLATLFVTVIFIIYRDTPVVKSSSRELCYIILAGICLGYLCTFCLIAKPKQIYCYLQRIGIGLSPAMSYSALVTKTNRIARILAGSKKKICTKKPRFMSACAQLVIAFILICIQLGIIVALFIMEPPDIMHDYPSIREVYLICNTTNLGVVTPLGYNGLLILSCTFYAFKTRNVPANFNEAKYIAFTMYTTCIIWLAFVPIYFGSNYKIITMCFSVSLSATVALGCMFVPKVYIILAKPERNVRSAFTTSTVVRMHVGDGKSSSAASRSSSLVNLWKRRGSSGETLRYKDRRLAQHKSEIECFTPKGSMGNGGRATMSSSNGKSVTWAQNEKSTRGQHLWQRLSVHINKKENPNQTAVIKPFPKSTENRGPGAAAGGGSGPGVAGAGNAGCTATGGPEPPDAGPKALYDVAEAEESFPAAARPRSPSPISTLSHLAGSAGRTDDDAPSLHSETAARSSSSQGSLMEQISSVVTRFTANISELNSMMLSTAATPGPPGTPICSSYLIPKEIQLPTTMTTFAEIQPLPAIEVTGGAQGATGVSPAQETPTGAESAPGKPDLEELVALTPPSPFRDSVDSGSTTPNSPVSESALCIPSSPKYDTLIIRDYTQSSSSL

Structure (SMILES)	IC50 [nM]
Cc1ccc(N)c(C#Cc2cncc(Cl)c2)n1	< 30
Cc1cc(C)c(N)c(C#Cc2cccc(Cl)c2)n1	< 30

Further lines, results first:

IC50 [nM]	Structure (SMILES)
< 30	Cc1ccc(N)c(C#Cc2cc(F)cc(F)c2)n1
< 30	Cc1ccc(N)c(C#Cc2cccc(F)c2)n1
< 30	Cc1cc(C)c(N)c(C#Cc2cccc(F)c2)n1
